Blank lines part the entries; values can stand above or below the compound they belong to.
What was measured:
Format in all cases: cell-based
[1] = system: IL-6 in human monocyte cell line (THP-1 cells); assay: IL-6 inhibition in LPS-stimulated THP-1 cells (HTRF); conditions: IL-6 in LPS-stimulated THP-1 cells; for EC50: HTRF; for inhibition at 10 µM: read-out: percent inhibition in brackets beside EC50 >10 μM
Procedure, shortened: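 THP-1 cells, serum-reduced (1% FBS) for 24 h, were preincubated with compound (10-point 1:3 series from 10 μM, 0.1% DMSO) for 2 h, then stimulated with 500 ng/mL LPS for 22 h at 37° C. IL-6 was read by HTRF (665/620 nm ratio) and normalized to DMSO. EC50 from four-parameter fit; % inhibition at 10 μM given if EC50 >10 μM.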

SW480 colon cancer cells = assay: Cell viability assay (CellTiter-Blue), four days; conditions: Homo sapiens, 96 h; for EC50: CellTiter-Blue cell viability; for inhibition at 10 µM: read-out: percent inhibition at 10 μM (given for EC50 of >10 μM)
Procedure, shortened: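 SW480 cells (~2×10^3 per well) were exposed to compound for four days at 37 °C/5% CO2, using 8-point 1:3 dilutions from 10 μM to 0.0045 μM in duplicate. Viability was read by resazurin reduction (CellTiter-Blue, ~3 h, Ex 560/Em 590 nm). EC50 came from non-linear regression; above 10 μM, percent inhibition at 10 μM is given.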

[2] = system: primary human mesenchymal stem cells (hMSCs); assay: Induction of chondrogenesis in hMSCs (nodule area, Rhodamine B / Nile Red); conditions: TGF-β3 as positive control; for Emax: read-out: Max. Activity as % TGF-β3 activity; for EC50: concentration required to induce 50% levels of chondrogenesis, read-out: Conc (nM) of 50% TGF-β3 activity
Procedure, shortened: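 Primary hMSCs (passage 3–6) in incomplete chondrogenic induction medium were treated 6 days at 37° C. with 1:3 dilutions (2700–10 nM in 96-well or 5000–2.2 nM in 384-well; 0.03% DMSO). Rhodamine B/Nile Red-stained nodule area was imaged, normalized to DMSO wells, and EC50 was set against TGF-β3 (10 ng/mL).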

Compound: CN(C)c1cncc(-c2ccc3[nH]nc(-c4nc5c(-c6cccs6)nccc5[nH]4)c3n2)c1 [Compound 343, N,N-Dimethyl-5-(3-(4-(thiophen-2-yl)-1H-imidazo[4,5-c]pyridin-2-yl)-1H-pyrazolo[4,3-b]pyridin-5-yl)pyridin-3-amine]
- EC50 [1]: 3.43 µM
- EC50 (SW480 colon cancer cells): 0.455 µM
- Emax [2]: 85%
- EC50 [2]: 100 nM

Compound: CCCC(=O)Nc1cncc(-c2ccc3[nH]nc(-c4nc5c(-c6cc(F)cc(CNS(C)(=O)=O)c6)nccc5[nH]4)c3n2)c1 [Compound 493, N-(5-(3-(4-(3-Fluoro-5-(methylsulfonamidomethyl)phenyl)-1H-imidazo[4,5-c]pyridin-2-yl)-1H-pyrazolo[4,3-b]pyridin-5-yl)pyridin-3-yl)butyramide]
- EC50 [1]: > 10 µM
- inhibition at 10 µM [1]: 20.3%
- inhibition at 10 µM (SW480 colon cancer cells): 4.3%
- EC50 (SW480 colon cancer cells): > 10 µM
- Emax [2]: 46%

Compound: CCNCc1cncc(-c2ccc3[nH]nc(-c4nc5c(-c6cc(F)cc(NCCN(C)C)c6)nccc5[nH]4)c3n2)c1 [Compound 454, N^1-(3-(2-(5-(5-((Ethylamino)methyl)pyridin-3-yl)-1H-pyrazolo[4,3-b]pyridin-3-yl)-1H-imidazo[4,5-c]pyridin-4-yl)-5-fluorophenyl)-N^2,N^2-dimethylethane-1,2-diamine]
- EC50 [1]: 1.03 µM
- EC50 (SW480 colon cancer cells): 6.6 µM
- Emax [2]: 36%

Compound: CC(C)Nc1cncc(-c2ccc3[nH]nc(-c4nc5c(-c6cc(F)cc(NCCN(C)C)c6)nccc5[nH]4)c3n2)c1 [Compound 460, N^1-(3-Fluoro-5-(2-(5-(5-(isopropylamino)pyridin-3-yl)-1H-pyrazolo[4,3-b]pyridin-3-yl)-1H-imidazo[4,5-c]pyridin-4-yl)phenyl)-N^2,N^2-dimethylethane-1,2-diamine]
- EC50 [1]: 1.25 µM
- EC50 (SW480 colon cancer cells): 0.585 µM
- Emax [2]: 116%
- EC50 [2]: 30 nM

Compound: Fc1cccc(-c2nccc3[nH]c(-c4n[nH]c5ccc(C6=CCNCC6)nc45)nc23)c1 [Compound 506, 3-(4-(3-Fluorophenyl)-1H-imidazo[4,5-c]pyridin-2-yl)-5-(1,2,3,6-tetrahydropyridin-4-yl)-1H-pyrazolo[4,3-b]pyridine]
- EC50 [1]: > 10 µM
- inhibition at 10 µM [1]: 34.6%
- inhibition at 10 µM (SW480 colon cancer cells): 0%
- EC50 (SW480 colon cancer cells): > 10 µM
- Emax [2]: 56%
- EC50 [2]: 21 nM

Compound: CS(=O)(=O)NCc1cc(F)cc(-c2nccc3[nH]c(-c4n[nH]c5ccc(-c6cncc(NC(=O)c7ccccc7)c6)nc45)nc23)c1 [Compound 487, N-(5-(3-(4-(3-Fluoro-5-(methylsulfonamidomethyl)phenyl)-1H-imidazo[4,5-c]pyridin-2-yl)-1H-pyrazolo[4,3-b]pyridin-5-yl)pyridin-3-yl)benzamide]
- EC50 [1]: > 10 µM
- inhibition at 10 µM [1]: 16.9%
- inhibition at 10 µM (SW480 colon cancer cells): 0%
- EC50 (SW480 colon cancer cells): > 10 µM

Compound: O=C(Nc1cncc(-c2ccc3[nH]nc(-c4nc5c(-c6cccs6)nccc5[nH]4)c3n2)c1)C1CC1 [Compound 356, N-(5-(3-(4-(Thiophen-2-yl)-1H-imidazo[4,5-c]pyridin-2-yl)-1H-pyrazolo [4,3-b]pyridin-5-yl)pyridin-3-yl)cyclopropanecarboxamide]
- EC50 [1]: > 10 µM
- inhibition at 10 µM [1]: 0%
- inhibition at 10 µM (SW480 colon cancer cells): 1.5%
- EC50 (SW480 colon cancer cells): > 10 µM

Compound: Cc1ccc(-c2nccc3[nH]c(-c4n[nH]c5ccc(-c6cncc(NC(=O)C7CCCC7)c6)nc45)nc23)s1 [Compound 414, N-(5-(3-(4-(5-Methylthiophen-2-yl)-1H-imidazo[4,5-c]pyridin-2-yl)-1H-pyrazolo[4,3-b]pyridin-5-yl)pyridin-3-yl)cyclopentanecarboxamide]
- EC50 [1]: > 10 µM
- inhibition at 10 µM [1]: 46.3%
- inhibition at 10 µM (SW480 colon cancer cells): 0.4%
- EC50 (SW480 colon cancer cells): > 10 µM

Compound: O=C(Nc1cncc(-c2ccc3[nH]nc(-c4nc5c(-c6cccc(F)c6)nccc5[nH]4)c3n2)c1)C1CC1 [Compound 20, N-(5-(3-(4-(3-Fluorophenyl)-1H-imidazo[4,5-c]pyridin-2-yl)-1H-pyrazolo [4,3-b]pyridin-5-yl)pyridin-3-yl)cyclopropanecarboxamide]
- EC50 [1]: > 10 µM
- inhibition at 10 µM [1]: 0%
- inhibition at 10 µM (SW480 colon cancer cells): 6%
- EC50 (SW480 colon cancer cells): > 10 µM

Compound: CN(C)CCNc1cc(F)cc(-c2nccc3[nH]c(-c4n[nH]c5ccc(-c6ccccn6)nc45)nc23)c1 [Compound 476, N^1-(3-Fluoro-5-(2-(5-(pyridin-2-yl)-1H-pyrazolo[4,3-b]pyridin-3-yl)-1H-imidazo[4,5-c]pyridin-4-yl)phenyl)-N^2,N^2-dimethylethane-1,2-diamine]
- EC50 [1]: > 10 µM
- inhibition at 10 µM [1]: 35.8%
- EC50 (SW480 colon cancer cells): 6.25 µM

Second part, led by results:

- EC50 [1]: > 10 µM
- EC50 (SW480 colon cancer cells): 3.43 µM
Compound: Fc1cccc(-c2nccc3[nH]c(-c4n[nH]c5ccc(-c6cncc(OCCN7CCCC7)c6)nc45)nc23)c1 [Compound 514, 3-(4-(3-Fluorophenyl)-1H-imidazo[4,5-c]pyridin-2-yl)-5-(5-(2-(pyrrolidin-1-yl)ethoxy)pyridin-3-yl)-1H-pyrazolo[4,3-b]pyridine]
- inhibition at 10 µM [1]: 47.8%

- EC50 [1]: > 10 µM
- EC50 (SW480 colon cancer cells): > 10 µM
- EC50 [2]: 7 nM
Compound: Fc1cccc(-c2nccc3[nH]c(-c4n[nH]c5ccc(-c6cn[nH]c6)nc45)nc23)c1 [Compound 507, 3-(4-(3-Fluorophenyl)-1H-imidazo[4,5-c]pyridin-2-yl)-5-(1H-pyrazol-4-yl)-1H-pyrazolo[4,3-b]pyridine]
- inhibition at 10 µM [1]: 0%
- Emax [2]: 70%

- EC50 [1]: > 10 µM
- EC50 (SW480 colon cancer cells): 9.87 µM
Compound: c1cc2[nH]c(-c3n[nH]c4ccc(-c5cncc(OCCN6CCCC6)c5)nc34)nc2c(N2CCCCC2)n1 [Compound 610, 3-(4-(Piperidin-1-yl)-1H-imidazo[4,5-c]pyridin-2-yl)-5-(5-(2-(pyrrolidin-1-yl)ethoxy)pyridin-3-yl)-1H-pyrazolo[4,3-b]pyridine]
- inhibition at 10 µM [1]: 34.9%

- EC50 [1]: > 10 µM
- EC50 (SW480 colon cancer cells): > 10 µM
Compound: c1cc(-c2nccc3[nH]c(-c4n[nH]c5ccc(-c6cncc(OC7CCNCC7)c6)nc45)nc23)ccn1 [Compound 576, 5-(5-(Piperidin-4-yloxy)pyridin-3-yl)-3-(4-(pyridin-4-yl)-1H-imidazo[4,5-c]pyridin-2-yl)-1H-pyrazolo[4,3-b]pyridine]
- inhibition at 10 µM [1]: 22.3%
- inhibition at 10 µM (SW480 colon cancer cells): 24.6%

- EC50 [1]: > 10 µM
- EC50 (SW480 colon cancer cells): > 10 µM
Compound: c1cc(-c2nccc3[nH]c(-c4n[nH]c5ccc(-c6cnccn6)nc45)nc23)ccn1 [Compound 584, 5-(Pyrazin-2-yl)-3-(4-(pyridin-4-yl)-1H-imidazo[4,5-c]pyridin-2-yl)-1H-pyrazolo[4,3-b]pyridine]
- inhibition at 10 µM [1]: 32.2%
- inhibition at 10 µM (SW480 colon cancer cells): 2.1%

- EC50 [1]: 3.1 µM
- EC50 (SW480 colon cancer cells): > 10 µM
Compound: Oc1cncc(-c2ccc3[nH]nc(-c4nc5c(-c6cccnc6)nccc5[nH]4)c3n2)c1 [Compound 565, 5-(3-(4-(Pyridin-3-yl)-1H-imidazo[4,5-c]pyridin-2-yl)-1H-pyrazolo[4,3-b]pyridin-5-yl)pyridin-3-ol]
- inhibition at 10 µM (SW480 colon cancer cells): 32.7%

- EC50 [1]: > 10 µM
- EC50 (SW480 colon cancer cells): > 10 µM
Compound: c1ccc(COc2cncc(-c3ccc4[nH]nc(-c5nc6c(-c7ccncc7)nccc6[nH]5)c4n3)c2)cc1 [Compound 582, 5-(5-(Benzyloxy)pyridin-3-yl)-3-(4-(pyridin-4-yl)-1H-imidazo[4,5-c]pyridin-2-yl)-1H-pyrazolo[4,3-b]pyridine]
- inhibition at 10 µM [1]: 8.3%
- inhibition at 10 µM (SW480 colon cancer cells): 10.9%

- EC50 [1]: > 10 µM
- EC50 (SW480 colon cancer cells): > 10 µM
Compound: CS(=O)(=O)NCc1cc(F)cc(-c2nccc3[nH]c(-c4n[nH]c5ccc(-c6cncnc6)nc45)nc23)c1 [Compound 503, N-(3-Fluoro-5-(2-(5-(pyrimidin-5-yl)-1H-pyrazolo[4,3-b]pyridin-3-yl)-1H-imidazo[4,5-c]pyridin-4-yl)benzyl)methanesulfonamide]
- inhibition at 10 µM [1]: 40.8%
- inhibition at 10 µM (SW480 colon cancer cells): 0.8%

- EC50 [1]: > 10 µM
- EC50 (SW480 colon cancer cells): > 10 µM
Compound: c1cncc(-c2nccc3[nH]c(-c4n[nH]c5ccc(-c6cncc(OC7CCCCC7)c6)nc45)nc23)c1 [Compound 559, 5-(5-(Cyclohexyloxy)pyridin-3-yl)-3-(4-(pyridin-3-yl)-1H-imidazo[4,5-c]pyridin-2-yl)-1H-pyrazolo[4,3-b]pyridine]
- inhibition at 10 µM [1]: 42.7%
- inhibition at 10 µM (SW480 colon cancer cells): 18%

- EC50 [1]: > 10 µM
- EC50 (SW480 colon cancer cells): > 10 µM
Compound: O=C(CC1CCNCC1)Nc1cncc(-c2ccc3[nH]nc(-c4nc5c(-c6ccccn6)nccc5[nH]4)c3n2)c1 [Compound 593, 2-(Piperidin-4-yl)-N-(5-(3-(4-(pyri-2-yl)-1H-imidazo[4,5-c]pyridin-2-yl)-1H-pyrazolo[4,3-b]pyridin-5-yl)pyridin-3-yl)acetamide]
- inhibition at 10 µM [1]: 32.5%
- inhibition at 10 µM (SW480 colon cancer cells): 9.1%

- EC50 [1]: > 10 µM
- EC50 (SW480 colon cancer cells): > 10 µM
Compound: Cc1cn(-c2nccc3[nH]c(-c4n[nH]c5ccc(-c6cncc(OCCN(C)C)c6)nc45)nc23)cn1 [Compound 627, N,N-Dimethyl-2-((5-(3-(4-(4-methyl-1H-imidazol-1-yl)-1H-imidazo[4,5-c]pyridin-2-yl)-1H-pyrazolo[4,3-b]pyridin-5-yl)pyridin-3-yl)oxy)ethan-1-amine]
- inhibition at 10 µM [1]: 17.6%
- inhibition at 10 µM (SW480 colon cancer cells): 8.2%
